From patent EP4174174A1, “TAILOR-MADE EXTREMOPHILIC FUNGAL LACCASES” (priority 2021, dated 2023)
Like-named read-outs stand apart in the source and are kept apart here.

Tests used:
Format in all cases: biochemical
[1] = biological target: RY2 laccase (parental enzyme, SEQ ID NO: 1) (basidiomycete PM1, UniProt Q12571)
Protocol: (§1) Flask production and purification. The S. cerevisiae clones expressing selected laccase variants were grown in duplicate, in 100mL flasks with 30mL expression medium (containing […] and 3% ethanol) (Camarero et al. Applied and Environmental Microbiology 2012, 78,5). […] After 3 days of fermentation, cultures were treated as previously described (De Salas et al. Green Chemistry 2019 21, 5374-5385). Purification of the enzymes by High Pressure Liquid Chromatography (HPLC) was carried out in 3 chromatographic steps: two anion exchange steps using a HiPrep-QFF 16/10 column in a 100mL gradient of 0-40% elution buffer, and a MonoQ-HR 5/5 column in a 30mL gradient of 0-25% elution buffer, followed by size exclusion chromatography with a Superdex75. Fractions containing laccase activity (with 3mM ABTS in 50mM citrate-phosphate pH 3) were pooled, dialyzed in Tris-HCI pH 7 and concentrated after each chromatographic step. Enzyme purification was confirmed by the electrophoretic mobility in SDS-PAGE (12% acrylamide) stained with Coomassie brilliant blue.
(§2) To calculate Km and kcat values the average Vmax was represented versus substrate concentration and fitted to a single rectangular hyperbola function in SigmaPlot (version 14.0) software, where parameter "a" was equal to kcat and parameter "b" was equal to Km.

[2] = biological target: RY2 laccase variant L2 (+F460M; F392N, F396I, F460M) (basidiomycete PM1, UniProt Q12571, F413N/F417I/F481M, form not given)
RY2 laccase variant L2 (+F460M; F392N, F396I, F460M), sequence (Q12571 entry or part of it F413N/F417I/F481M, form open): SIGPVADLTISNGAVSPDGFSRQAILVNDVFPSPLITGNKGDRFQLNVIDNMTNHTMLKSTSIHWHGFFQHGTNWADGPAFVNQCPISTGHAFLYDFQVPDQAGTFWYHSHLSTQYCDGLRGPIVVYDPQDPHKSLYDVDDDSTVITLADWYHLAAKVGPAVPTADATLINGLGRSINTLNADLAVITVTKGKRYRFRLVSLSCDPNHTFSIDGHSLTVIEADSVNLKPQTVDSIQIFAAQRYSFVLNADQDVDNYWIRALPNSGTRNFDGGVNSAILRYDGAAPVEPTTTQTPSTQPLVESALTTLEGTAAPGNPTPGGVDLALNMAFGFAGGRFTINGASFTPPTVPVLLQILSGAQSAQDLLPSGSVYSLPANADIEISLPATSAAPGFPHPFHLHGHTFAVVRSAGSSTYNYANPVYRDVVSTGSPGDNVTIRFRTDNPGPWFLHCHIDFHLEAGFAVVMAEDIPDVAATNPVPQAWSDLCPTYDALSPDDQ
Protocol: as §1, §2

[3] = system: RY2 laccase variant L3 (+D263V; F392N, F396I, F460M, D263V); assay: Kinetic constants for the oxidation of ABTS and DMP by pure laccase
Protocol: as §1, §2

[4] = system: RY2 laccase variant L4 (+A458L; F392N, F396I, F460M, D263V, A458L); assay: as above
Protocol: as §1, §2

RY2 laccase (parental enzyme, SEQ ID NO: 1), sequence (Q12571 entry or part of it): as the sequence (Q12571 entry or part of it F413N/F417I/F481M, form open) above

Row | Structure (SMILES) | kcat ([1]; substrate DMP, pH 5) [s⁻¹] | kcat ([2]; substrate DMP, pH 8) [s⁻¹] | kcat ([2]; substrate DMP, pH 9) [s⁻¹] | Km ([3]; substrate DMP, pH 8) [µM] | kcat ([3]; substrate DMP, pH 8) [s⁻¹] | Km ([3]; substrate DMP, pH 9) [µM] | kcat ([3]; substrate DMP, pH 9) [s⁻¹] | Km ([3]; substrate DMP, pH 10) [µM] | kcat ([3]; substrate DMP, pH 10) [s⁻¹] | Km ([4]; substrate DMP, pH 8) [µM] | Km ([4]; substrate DMP, pH 9) [µM] | kcat ([4]; substrate DMP, pH 9) [s⁻¹] | Km ([4]; substrate DMP, pH 10) [µM] | kcat ([4]; substrate DMP, pH 10) [s⁻¹] | kcat ([1]; substrate ABTS, pH 3) [s⁻¹] | kcat ([2]; substrate ABTS, pH 3) [s⁻¹] | Km ([3]; substrate ABTS, pH 3) [µM] | kcat ([3]; substrate ABTS, pH 3) [s⁻¹] | Km ([4]; substrate ABTS, pH 3) [µM] | kcat ([4]; substrate ABTS, pH 3) [s⁻¹]
1 | COc1cccc(OC)c1O [DMP, 2,6-dimethoxyphenol] | 123 ± 6 | 89 ± 6.2 | 9.5 ± 0.1 | 1500 ± 120 | 82.3 ± 7.6 | 300 ± 30 | 21.7 ± 1.3 | 27 ± 1 | 0.79 ± 0.03 | 1710 ± 100 | 430 ± 10 | 26 ± 0.28 | 22 ± 2 | 2 ± 0.05 | – | – | – | – | – | –
2 | CCn1c(=NN=c2sc3cc(S(=O)(=O)O)ccc3n2CC)sc2cc(S(=O)(=O)O)ccc21 [ABTS] | – | – | – | – | – | – | – | – | – | – | – | – | – | – | 543 ± 17 | 231 ± 5.6 | 460 ± 40 | 123 ± 5.5 | 680 ± 40 | 136 ± 2.7
